Data reported in publication PMC13360702, “An Agonist/Antagonist Photo‐Switchable Vitamin D Mimetic Enables Bidirectional Optical Control of VDR” (Angewandte Chemie (International Ed. in English), 2026).

Biological target: T1, VDR (Homo sapiens, UniProt P11473)
T1 construct: -CMV-VDR-LBD coding for the hinge region and; expressed in transfected cells; host or cells: HEK293T
T1 sequence (P11473 127-423 limits assumed): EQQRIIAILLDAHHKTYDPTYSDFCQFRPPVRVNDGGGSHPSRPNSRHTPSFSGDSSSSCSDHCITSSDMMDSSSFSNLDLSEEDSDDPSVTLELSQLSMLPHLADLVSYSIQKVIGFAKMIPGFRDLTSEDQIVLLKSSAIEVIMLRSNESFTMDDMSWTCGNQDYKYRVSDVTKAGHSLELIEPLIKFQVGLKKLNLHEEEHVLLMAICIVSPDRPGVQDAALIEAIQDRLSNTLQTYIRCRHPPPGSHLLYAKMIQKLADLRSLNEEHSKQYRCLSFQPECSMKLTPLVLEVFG
Experiment: fluorescent (mCherry) reporter gene assay, in‐cell VDR activation over time
Type: cell-based
Settings: 1 µM
Experimental: To evaluate the potential of 10 for in‐cell control of VDR activity, we determined its light‐dependent effect over time (Figure 3a) using VDR‐induced expression of the fluorescent protein mCherry as reporter for non‐invasive monitoring. Under illumination with a Cell‐Disco [24]
FIGURE 3 Optical control of VDR activity with photo‐vitD (10). (a) 10 (1 µM) enabled light‐dependent in‐cell activation of VDR in a fluorescent (mCherry) reporter gene assay. Gray curve: dark; blue curve: Cell‐Disco (370 nm; 100 ms/10 s); yellow curve: dark for 10 h, then Cell‐Disco (370 nm); magenta curve: Cell‐Disco (370 nm) for 10 h, then Cell‐Disco (450 nm). Lines are the mean, shadows are S.E.M.; n = 6. (b–d) Phenotypic model of bone formation using human […] (ASC52telo hTERT cells) and cyclic treatment with dexamethasone, 2‐phospho‐L‐ascorbic acid, and glycerol 2‐phosphate over 15 days to induce osteogenesis. Alkaline phosphatase (ALP) activity (b) and von Kossa staining of hydroxyapatite (c; representative photomicrographs in d) were used as markers of osteogenesis. Experiments were performed in the dark (gray bars) and using a Cell‐Disco (370 nm, 100 ms/10 s; blue bars). Data are the mean±SD, n = 6. * p<0.05, ** p<0.01, *** p<0.001 (vs. respective dark or illuminated DMSO (diff.) ctrl or as indicated; ANOVA with Dunnett's multiple comparisons test).
Gal4-hybrid reporter gene assays. […] After 14−16 h incubation, luciferase activity was measured using the Dual -Glo Luciferase Assay System (Promega) according to the manufacturer’s protocol on a Tecan Spark luminometer (Tecan Deutschland GmbH, Crailsheim, Germany). […] EC 50 and IC50 values were calculated by fitting dose−response data with the equation “[agonist] vs response − variable slope (four parameters)” or “[inhibitor] vs response − variable slope (four parameters)” in GraphPad Prism (version 7, GraphPad software, La Jolla, CA, USA). […]
Fluorescent Reporter Gene Assay. The fluorescence reporter gene assay was performed in HEK293T […]

VDR‐induced mCherry fluorescence over time (without illumination (dark)): no increase in fluorescence
Compound: CCCc1cc(C(O)(CC)CC)ccc1-c1ccc(/N=N/c2ccc3cc(C(=O)O)ccc3c2)cc1C [compound 10]
VDR‐induced mCherry fluorescence over time (Cell‐Disco 370 nm for 10 h, then switched back to (E)‐state with 450 nm light): the increase in mCherry fluorescence ceased
VDR‐induced mCherry fluorescence over time (Cell‐Disco 370 nm, 100 ms/10 s ((Z)‐state)): mCherry fluorescence constantly increased
